Biological target: T1, BiP (GRP78) (Homo sapiens, UniProt P11021)
T1 construct: gene HSPA5; recombinant His-GST-BiP (BiP-N-His-GST), expressed in E. coli
Experiment: SPR (Biacore T200, His-capture plus amine coupling on NTA chip)
Type: binding

T1 sequence (P11021 19-654): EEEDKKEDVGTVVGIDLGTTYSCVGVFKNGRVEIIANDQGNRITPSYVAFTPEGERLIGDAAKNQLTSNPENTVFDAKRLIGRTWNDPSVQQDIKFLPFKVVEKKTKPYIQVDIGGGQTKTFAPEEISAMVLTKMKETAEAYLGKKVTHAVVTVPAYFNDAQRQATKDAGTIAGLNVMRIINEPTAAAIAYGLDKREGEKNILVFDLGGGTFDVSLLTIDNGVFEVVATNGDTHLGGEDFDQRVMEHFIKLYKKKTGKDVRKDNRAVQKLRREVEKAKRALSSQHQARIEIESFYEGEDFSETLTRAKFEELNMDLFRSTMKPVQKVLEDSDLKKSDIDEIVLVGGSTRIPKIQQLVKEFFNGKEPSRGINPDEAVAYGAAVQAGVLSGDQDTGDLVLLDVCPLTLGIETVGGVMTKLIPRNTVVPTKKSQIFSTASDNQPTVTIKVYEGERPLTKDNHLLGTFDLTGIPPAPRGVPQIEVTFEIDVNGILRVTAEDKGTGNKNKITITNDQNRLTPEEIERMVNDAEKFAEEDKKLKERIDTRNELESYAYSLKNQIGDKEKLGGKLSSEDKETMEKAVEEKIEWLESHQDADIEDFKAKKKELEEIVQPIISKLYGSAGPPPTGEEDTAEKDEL

Compound: COc1c(O)cc2oc3cc(O)c(CC=C(C)C)c(O)c3c(=O)c2c1CC=C(C)C [α-Mangostin]
- Kd: 21.7 µM

Reference: publication PMC10093438, “α-Mangostin Promotes In Vitro and In Vivo Degradation of Androgen Receptor and AR-V7 Splice Variant in Prostate Cancer Cells” (Cancers, 2023)
